Paper PMC7321408, “One-Pot Multicomponent Synthesis and Bioevaluation of Tetrahydroquinoline Derivatives as Potential Antioxidants, α-Amylase Enzyme Inhibitors, Anti-Cancerous and Anti-Inflammatory Agents” (Molecules, 2020)
Values after ≈ are worked out from the molar mass of the structure shown. Values joined by “and” are separate entries in the source; they are usually repeats but may differ in a detail not shown here. Identical values can stand only once. Like-named read-outs stand apart in the source and are kept apart here.

Key:
[1] = test system: NO generated by LPS-induced macrophages; test: Nitric oxide assay (Griess) in LPS-induced macrophages; assay type: cell-based, murine; conditions: Mus musculus, Macrophage, 18 h, LPS 1 µg/mL, read-out: % NO Production (Mean ± SEM)
Procedure: A Griess reagent, a spectrophotometric determination of nitrite level, was carried out to measure the nitrite level in the conditioned medium of macrophages treated with lipopolysaccharide (LPS). Sodium nitrite (NaNO2) was used as a standard compound for the standard curve (Figure 8). The NO concentrations were obtained using the standard curve equation: y = 0.0083x + 0.0017, R^2 = 0.9999, where y is the absorbance at 540 nm and x is the NO concentration in µM. The inhibitory activity of the tested compounds towards NO generated by LPS-induced macrophages was obtained from the calculated value of x.
The anti-inflammatory effect of the synthesized compounds in murine macrophages was evaluated by using the Griess reaction method, described previously. In brief, 1 × 10^6 were plated in a 96-well plate and incubated in a 5% CO2 incubator at 37 °C for 24 h, pre-treated with different concentrations (100 µM, 50 µM, 10 µM and 1 µM) of synthetic compounds for another 2 h and challenged with LPS (1 µg/mL) for an additional 18 h. Equal volumes of Griess reagent (1% sulphanilamide in 50% phosphoric acid and 0.1% naphthyl ethylenediamine dihydrochloride in distilled water and vortexed) and culture medium were mixed and the absorbance was taken at 540 nm. Lipopolysaccharide (LPS) was taken as a blank and piroxicam was taken as a positive control. A t-test was applied to determine the significance of the results.

[2] = DPPH free radical scavenging assay; conditions: mean ± SEM, n = 3; for IC50 (DPPH radical scavenging): concentration to scavenge 50% of the DPPH radicals
Procedure: The % free radical scavenging activity (%FRSA) of the synthetic compounds was evaluated by the discoloration of an unstable DPPH reagent to the stable yellow-colored 2,2-diphenyl-1-picrylhydrazine molecule by accepting one electron from a donor antioxidant; the mechanism is shown in Scheme 2.
The % FRSA (free radical scavenging activity) of the synthetic compounds was determined by using the method of Tai et al. with slight modifications. The antioxidant potential was determined by detecting the capacity of the synthetic compounds to quench the DPPH free radicals. The synthetic compounds were taken in a 96-well plate at three-fold concentrations of 200 µg/mL, 66.6 µg/mL, 22.2 µg/mL and 7.4 µg/mL. DPPH free radicals were added to entire wells to make up the volume up to 200 µL. DMSO and ascorbic acid were taken as negative and positive controls, respectively. The absorbance was taken at 630nm using a microplate reader (ELx800 BioTek). The percentage of scavenging activity was calculated by the given formula:% scavenging activity = (1 − Abs/Abc) × 100
Abs = sample’s absorbance; Abc = control’s absorbance.

[3] = Total reducing power (TRP) assay
Procedure: A TRP assay was carried out to evaluate the reducing potential of synthetic compounds. The method implicates reductones. These reductones are species with antioxidant potential that is believed to be due to their proton-donating capacity. […] The maximum value of reducing power was 104.7 ± 1.9 µg/AAE for SF5, followed by 103.18 ± 2.4 µg/AAE for SF7 and 84.57 ± 1.9 µg/AAE for SF12 (Figure 3 and Figure 4 (standard curve)).
The assay is based on the reduction of Fe^+3 to Fe^+2. The method described by Khan et al. was used with slight modifications. One hundred microliters of test samples (4 mg/mL DMSO) were taken in an Eppendrof tube and 200 μL of phosphate buffer (0.2 mol/L, pH 6.6) and 250 µL of 1% potassium ferricyanide (K3Fe CN)6) were added. This was allowed to incubate at 50 °C for 20 min. Later on, 200 μL of 10% trichloroacetic acid (TCA) was added to the mixture. The mixture was centrifuged at 3000 rpm at room temperature for 10 min. After centrifugation, 150 µL of supernatant were transferred to microplate with FeCl3 (50 μL, 0.1%) and the absorbance was taken at 630 nm. The results were calculated as µg AAE/mg.

[4] = MTT cytotoxicity against raw macrophages; assay type: cell-based, albino rats; conditions: albino, rat; for viability at 24 h, 1 µM / viability at 24 h, 10 µM / viability at 24 h, 50 µM / viability at 24 h, 100 µM: peritoneal macrophages (raw macrophages), raw macrophages, MTT, read-out: % Cell Viability; for IC50 at 24 h: primary peritoneal macrophages, mean ± SEM, n = 3
Procedure: The % cell viability of the synthetic library was evaluated in vitro by measuring the mitochondrial dehydrogenase activity (MTT test) on raw macrophages.
The cytotoxic potential was assessed by using an MTT 3-(4,5-dimethyl thiazole-2-yl)-2,5- diphenyl tetrazolium bromide assay. Briefly, macrophages were extracted from the peritoneal cavity of albino rats and plated at a density of 1 × 10^6 per well in a 96-well plate and incubated in a 5% CO2 incubator at 37 °C for 24 h. The cells were treated with various concentrations of the test compounds (100 µM, 50 µM, 10 µM and 1 µM) or vehicle alone. The test compounds were first dissolved in DMSO to make a 100 mM stock solution and then further dilutions were made from this stock solution. After 24 h of incubation, 20 µL of MTT (1 mg/mL in normal saline) was added into each well and incubated under the same conditions for 2 h. Mitochondrial succinate dehydrogenase converted MTT in live cells into purple formazan crystals. The formazan crystals were then solubilized in 100 µL DMSO, and the absorbance was measured at 570 nm. The % cell viability was calculated by the following formula; % cell viability = (abssample − absblank)/(abscontrol − absblank) × 100

[5] = test system: brine shrimp nauplii; test: Brine shrimp lethality bioassay; assay type: in vivo; conditions: 24 h, n = 3
Procedure: Brine shrimp eggs were hatched in a shallow rectangular plastic dish and filled with artificial seawater, which was prepared with a commercial salt mixture. In a 96-well plate, 150 µL of artificial seawater was added and 10 nauplii were added into this. Test compounds (400, 200, 100 and 50 µg/mL) were added into each well and the final volume was made up by adding the artificial seawater. The well plate was left uncovered under a lamp. The number of surviving shrimps were counted and recorded after 24 h. The test was repeated in triplicate. […] The percentage mortality (%M) was also calculated by dividing the number of dead nauplii by the total number and then multiplied by 100.

[6] = Phosphomolybdenum-based total antioxidant capacity (TAC)
Procedure: In the presence of an antioxidant, the phosphomolybdate ion gets reduced and a green phosphate–molybdate complex is formed, which is analyzed spectrophotometrically.
The total antioxidant capacity was determined by using the phosphomolybdenum-based method. The method is based on the reduction of Mo (VI) to Mo (V), leading to the formation of a green-colored phosphate–molybdenum complex that gives absorption at 630 nm. In 96-well plates, 20 µL of the sample was added with 180 µL TAC reagents in it and incubated at 95 °C for 90 min in a water bath and cooled at room temperature. The results were calculated as µg AAE/mg.

[7] = target: α-amylase enzyme; test: α-Amylase enzyme inhibitory assay; assay type: biochemical
Procedure: An in vitro α-amylase enzyme inhibitory assay was performed by the standard protocol. Four milligrams per 1 mL of sample was prepared in DMSO. In each well of a 96-well plate, synthetic compounds were added to a final concentration of 200 µg/mL. To this, 15 μL phosphate buffer, […] α-amylase enzyme and 40 μL starch solution were added stepwise. The microplate was incubated at 50 °C for 30 min. […] The formula used to calculate the percent enzyme inhibition is:% Enzyme inhibition = [(As − An) ÷ (Ab − An] × 100
As = sample’s absorbance; An = negative’s absorbance; Ab = blank’s absorbance

[8] = test system: Hep-2C cells; test: MTT assay against Hep-2C cells; assay type: cell-based, Human; conditions: Homo sapiens, Hep2C, read-out: IC50 (Mean ± SEM) Hep-2C Cells
Procedure: Hep-2C cell line experiments were performed in the Immunology Lab of the National Institute of Health (NIH), Islamabad, Pakistan. Human cervix carcinoma cells Hep-2C (ATCC HB-8065) were cultured in Dulbecco’s modified Eagle’s medium (DMEM), comprising 10% fetal calf serum (10% FCS) and supplemented with 2 mM L-glutamine, 100 U/mL penicillin, 100 µg/mL streptomycin and 1 mM Na pyruvate, at 37 °C in a humidified 5% CO2 incubator.
The tetrazolium dye 3-(4, 5-dimethyl thiazolyl-2)-2, 5-diphenyltetrazolium bromide (MTT) was used to assess the cytotoxic potential of the test compounds. In living cells, MTT is reduced into its insoluble purple product formazan, which is measured spectrophotometrically.
Hep-2C cells, in a density of 1 × 10^6 (> 90% cell viability), were cultured in a 96-well plate and treated with different concentrations of the test compounds for 24, 48 and 72 h. Ten microliters of MTT (1 mg per mL) were added per well followed by incubation for 4 h. Insoluble formazan crystals were dissolved by adding 100 µL of DMSO. Cells were then incubated for another 2 h. Absorbance was measured at 570 nm by a microplate reader. Untreated Hep-2C cells were taken as controls and DMSO as a negative. % cell viability = (abssample − absblank)/(abscontrol − absblank) × 100

Row | IC50 (DPPH radical scavenging) [2] [µg/mL] | IC50 (α-amylase) [7] [µg/mL] | Structure (SMILES) | activity at 1 µM [1] [%] | activity at 10 µM [1] [%] | activity at 50 µM [1] [%] | activity at 100 µM [1] [%] | % DPPH Scavenging Activity ([2]; 7.4 µg/mL) [%] | % DPPH Scavenging Activity ([2]; 22.22 µg/mL) [%] | % DPPH Scavenging Activity ([2]; 66.66 µg/mL) [%] | % DPPH Scavenging Activity ([2]; 200 µg/mL) [%] | Total reducing power (TRP) [3] | viability at 24 h, 1 µM [4] [%] | viability at 24 h, 10 µM [4] [%] | viability at 24 h, 50 µM [4] [%] | viability at 24 h, 100 µM [4] [%] | IC50 at 24 h [4] [µM] | LD50 ± SEM (brine shrimp lethality) [5] [µg/mL] | Total antioxidant capacity (TAC) [6] [µg/AAE] | other results
1 | 39.33 ± 0.28 (≈ 147 µM) |  | COc1ccc(NCN2CCCc3ccccc32)cc1 [SF12, N-((3,4-dihydroquinolin-1(2H)-yl)methyl)-4-methoxyaniline] | 49.7 ± 0.61 | 32.3 ± 0.59 | 26.5 ± 0.578 | 23.2 ± 0.55 | 11.24 ± 0.11 | 31.80 ± 0.42 | 54.10 ± 0.17 | 64.20 ± 0.31 | 84.57 ± 1.9 µg/AAE | 87 ± 0.82 | 84 ± 0.87 | 57 ± 0.89 | 41 ± 0.86 | 35.1 ± 0.5 | 128 ± 1.87 | 191.19 ± 1.1231 | 
2 | 50.76 ± 0.37 (≈ 160 µM) | 18.55 ± 0.89 (≈ 58.5 µM) | Brc1ccc(NCN2CCCc3ccccc32)cc1 [SF9, 4-Bromo-N-((3,4-dihydroquinolin-1(2H)-yl)methyl) aniline] | 66.97 ± 0.61 | 58.54 ± 0.55 | 55.6 ± 0.51 | 49.07 ± 0.45 | 7.64 ± 0.26 | 19.35 ± 0.11 | 50.28 ± 0.22 | 67.46 ± 0.14 |  | 98 ± 0.87 | 91 ± 0.91 | 84 ± 1.21 | 82 ± 0.96 | 14.2 ± 0.26 | 139 ± 0.87 | 179.76 ± 1.6231 | % inhibition of α-amylase enzyme ([7]; 200 µg/mL): 89.93% and 93%
3 | 29.19 ± 0.25 (≈ 107 µM) | 27.39 ± 1.43 (≈ 100 µM) | Clc1cccc(NCN2CCCc3ccccc32)c1 [SF8, 3-Chloro-N-((3,4-dihydroquinolin-1(2H)-yl)methyl) aniline] | 39.4 ± 0.48 | 29.4 ± 0.44 | 24.1 ± 0.41 | 15 ± 0.33 | 27.98 ± 0.24 | 50.17 ± 0.32 | 52.12 ± 0.36 | 62.35 ± 0.14 |  | 97 ± 1.04 | 83 ± 0.78 | 68 ± 0.79 | 52 ± 1 | 21.2 ± 0.33 | 123.4 ± 1.87 |  | IC50 ([8]; 24 h): 20.2 ± 1.07 µM; IC50 ([8]; 48 h): 15.7 ± 1.08 µM; IC50 ([8]; 72 h): 11.9 ± 1.04 µM
4 | 47.81 ± 0.27 (≈ 171 µM) |  | CC(=O)N(CN1CCCc2ccccc21)c1ccccc1 [SF10, N-((3,4-dihydroquinolin-1(2H)-yl)methyl)-N-phenylacetamide] | 62.4 ± 0.65 | 58.5 ± 0.59 | 42.5 ± 0.54 | 33.84 ± 0.33 | 23.45 ± 0.28 | 31.89 ± 0.21 | 40.77 ± 0.31 | 49.73 ± 0.19 | no activity | 100 ± 0.88 | 95 ± 0.93 | 80 ± 1.24 | 76 ± 1.2 | 24.8 ± 0.269 | 196.1 ± 1.12 |  | 
